Each compound was assayed against T1, SMYD2 (Homo sapiens, UniProt Q9NRG4) (assay: SMYD2 Biochemical Assay (3H-SAM, biotinylated peptide substrate, Flashplate)). Conditions: IC50 values are an average of n = 1 to n = 50; read-out: SMYD2 Biochem IC50 (μM)*.
T1 construct: Full length SMYD2 (NP 064582.2) was cloned; His6 (N, cleaved yes); FLAG (N); made in house; host or cells: Sf9 insect cells
Procedure, shortened: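 Full-length His/FLAG-tagged SMYD2 expressed in Sf9 cells with tag cleaved, 1.5 nM, pre-incubated 30 min at room temperature with compound, then 10 nM 3H-SAM and 60 nM biotinylated peptide added. Buffer 20 mM Bicine pH 7.6, 1 mM TCEP, 0.005% BSG, 0.002% Tween20, 2% DMSO. Stopped with 600 uM cold SAM; 3H-peptide captured on streptavidin Flashplate; IC50 by curve fit.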

T1 sequence (Q9NRG4 whole entry): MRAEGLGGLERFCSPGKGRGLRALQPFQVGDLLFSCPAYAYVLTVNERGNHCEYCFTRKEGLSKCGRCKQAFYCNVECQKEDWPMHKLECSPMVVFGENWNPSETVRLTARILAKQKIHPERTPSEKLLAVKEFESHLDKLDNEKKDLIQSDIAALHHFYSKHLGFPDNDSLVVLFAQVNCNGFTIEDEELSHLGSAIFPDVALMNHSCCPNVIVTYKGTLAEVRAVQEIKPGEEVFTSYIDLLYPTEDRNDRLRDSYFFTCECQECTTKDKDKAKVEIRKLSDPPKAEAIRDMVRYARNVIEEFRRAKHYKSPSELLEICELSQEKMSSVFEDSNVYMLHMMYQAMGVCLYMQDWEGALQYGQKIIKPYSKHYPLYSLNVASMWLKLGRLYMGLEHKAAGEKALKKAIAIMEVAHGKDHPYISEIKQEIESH

Point of comparison: C[C@H]1CN(Cc2ccc3c(c2)OCCN3C)C[C@H]1NC(=O)c1cc(C2CC2)on1 (racemic) [compound 289, (±)-cis-5-cyclopropyl-N-{4-methyl-1-[(4-methyl-3,4-dihydro-2H-1,4-benzoxazin-7-yl)methyl]pyrrolidin-3-yl}-1,2-oxazole-3-carboxamide], IC50 6.08 µM. Against it:
- CN1C[C@H](NC(=O)c2cc(C3CC3)on2)[C@H](C(C)(C)C)C1 (racemic) [compound 257, (±)-cis-N-[4-tert-butyl-1-methylpyrrolidin-3-yl]-5-cyclopropyl-1,2-oxazole-3-carboxamide] — higher, > 50 µM
- CC(C)N1C[C@H](NC(=O)c2cc(C3CC3)on2)[C@H](C(C)(C)C)C1 (racemic) [compound 258, (±)-cis-N-[4-tert-butyl-1-(propan-2-yl)pyrrolidin-3-yl]-5-cyclopropyl-1,2-oxazole-3-carboxamide] — higher, > 50 µM
- CC(C)N1C[C@@H](C)[C@H](NC(=O)c2cc(C3(C)CCC3)on2)C1 (racemic) [compound 259, (±)-trans-N-[4-methyl-1-(propan-2-yl)pyrrolidin-3-yl]-5-(1-methylcyclobutyl)-1,2-oxazole-3-carboxamide] — higher, > 50 µM
- CC(C)N1C[C@H](C)[C@H](NC(=O)c2cc(C3(C)CCC3)on2)C1 (racemic) [compound 260, (±)-cis-N-[4-methyl-1-(propan-2-yl)pyrrolidin-3-yl]-5-(1-methyl-cyclobutyl)-1,2-oxazole-3-carboxamide] — higher, > 50 µM
- C[C@@H]1CN(CC(F)(F)F)C[C@H]1NC(=O)c1cc(C2CC2)on1 (racemic) [compound 261, (±)-trans-5-cyclopropyl-N-[4-methyl-1-(2,2,2-trifluoroethyl)pyrrolidin-3-yl]-1,2-oxazole-3-carboxamide] — higher, > 50 µM
- C[C@H]1CN(CC(F)(F)F)C[C@H]1NC(=O)c1cc(C2CC2)on1 (racemic) [compound 262, (±)-cis-5-cyclopropyl-N-[4-methyl-1-(2,2,2-trifluoroethyl)pyrrolidin-3-yl]-1,2-oxazole-3-carboxamide] — higher, > 50 µM
- C[C@H]1CN(CC(=O)N2CCN(C)CC2)C[C@H]1NC(=O)c1cc(C2CC2)on1 (racemic) [compound 263, (±)-cis-5-cyclopropyl-N-[4-methyl-1-[2-(4-methylpiperazin-1-yl)-2-oxoethyl]pyrrolidin-3-yl]-1,2-oxazole-3-carboxamide] — higher, > 50 µM
- C[C@H]1CN(CC(=O)N2CCCC2)C[C@H]1NC(=O)c1cc(C2CC2)on1 (racemic) [compound 264, (±)-cis-5-cyclopropyl-N-[4-methyl-1-[2-oxo-2-(pyrrolidin-1-yl)ethyl]pyrrolidin-3-yl]-1,2-oxazole-3-carboxamide] — higher, > 50 µM
- C[C@H]1CN(Cc2cccc3[nH]ncc23)C[C@H]1NC(=O)c1cc(C2CC2)on1 (racemic) [compound 265, (±)-cis-5-cyclopropyl-N-[1-(1H-indazol-4-ylmethyl)-4-methylpyrrolidin-3-yl]-1,2-oxazole-3-carboxamide] — within 1.5-fold, 4.89 µM
- C[C@H]1CN(Cc2cccc3cccnc23)C[C@H]1NC(=O)c1cc(C2CC2)on1 (racemic) [compound 266, (±)-cis-5-cyclopropyl-N-[4-methyl-1-(quinolin-8-ylmethyl)pyrrolidin-3-yl]-1,2-oxazole-3-carboxamide] — 2-fold higher, 12.3 µM
- C[C@H]1CN(CC(=O)N(C)C)C[C@H]1NC(=O)c1cc(C2CC2)on1 (racemic) [compound 267, (±)-cis-5-cyclopropyl-N-[1-[(dimethyl-carbamoyl)methyl]-4-methylpyrrolidin-3-yl]-1,2-oxazole-3-carboxamide] — higher, > 50 µM
- Cc1cc(CN2C[C@H](C)[C@H](NC(=O)c3cc(C4CC4)on3)C2)oc1C (racemic) [compound 268, (±)-cis-5-cyclopropyl-N-{1-[(4,5-dimethyl-furan-2-yl)methyl]-4-methylpyrrolidin-3-yl]-1,2-oxazole-3-carboxamide] — within 1.5-fold, 5.3 µM
- C[C@H]1CN(Cc2cc3ccccc3nc2Cl)C[C@H]1NC(=O)c1cc(C2CC2)on1 (racemic) [compound 269, (±)-cis-N-[1-[(2-chloro-quinolin-3-yl)methyl]-4-methylpyrrolidin-3-yl]-5-cyclopropyl-1,2-oxazole-3-carboxamide] — within 1.5-fold, 4.17 µM
- C[C@H]1CN(CC(=O)N2CCOCC2)C[C@H]1NC(=O)c1cc(C2CC2)on1 (racemic) [compound 270, (±)-cis-5-cyclopropyl-N-[4-methyl-1-[2-(morpholin-4-yl)-2-oxoethyl]pyrrolidin-3-yl]-1,2-oxazole-3-carboxamide] — higher, > 50 µM
- C[C@@H]1CN(CC(=O)N2CCOCC2)C[C@H]1NC(=O)c1cc(C2CC2)on1 (racemic) [compound 271, (±)-trans-5-cyclopropyl-N-[4-methyl-1-[2-(morpholin-4-yl)-2-oxoethyl]pyrrolidin-3-yl]-1,2-oxazole-3-carboxamide] — higher, > 50 µM
- C[C@H]1CN(c2ccccc2)C[C@H]1NC(=O)c1cc(C2CC2)on1 (racemic) [compound 272, (±)-cis-5-cyclopropyl-N-[4-methyl-1-phenylpyrrolidin-3-yl]-1,2-oxazole-3-carboxamide] — higher, > 50 µM
- C[C@H]1CN(c2ccc(Cl)cc2)C[C@H]1NC(=O)c1cc(C2CC2)on1 (racemic) [compound 273, (±)-cis[N-[1-(4-chloro-phenyl)-4-methyl-pyrrolidin-3-yl]-5-cyclopropyl-1,2-oxazole-3-carboxamide] — higher, > 50 µM
- C[C@H]1CN(Cc2ccc3c(c2)OCCO3)C[C@H]1NC(=O)c1cc(C2CC2)on1 (racemic) [compound 274, (±)-cis-5-cyclopropyl-N-[1-(2,3-dihydro-1,4-benzodioxin-6-ylmethyl)-4-methylpyrrolidin-3-yl]-1,2-oxazole-3-carboxamide] — within 1.5-fold, 6.3 µM
- C[C@H]1CN(Cc2ccccc2Cl)C[C@H]1NC(=O)c1cc(C2CC2)on1 (racemic) [compound 275, (±)-cis-N-{1-[(2-chloro-phenyl)methyl]-4-methyl-pyrrolidin-3-yl}-5-cyclopropyl-1,2-oxazole-3-carboxamide] — 2-fold lower, 3.02 µM
- C[C@H]1CN(CCO)C[C@H]1NC(=O)c1cc(C2CC2)on1 (racemic) [compound 276, (±)-cis-5-cyclopropyl-N-[1-(2-hydroxyethyl)-4-methylpyrrolidin-3-yl]-1,2-oxazole-3-carboxamide] — within 1.5-fold, 5.85 µM
- C[C@@H]1CN(CC(=O)N(C)C)C[C@H]1NC(=O)c1cc(C2CC2)on1 (racemic) [compound 277, (±)-trans-5-cyclopropyl-N-{1-[(dimethyl-carbamoyl)methyl]-4-methylpyrrolidin-3-yl}-1,2-oxazole-3-carboxamide] — higher, > 50 µM
- CC(=O)Nc1ccc(N2C[C@H](C)[C@H](NC(=O)c3cc(C4CC4)on3)C2)cc1 (racemic) [compound 278, (±)-cis-5-cyclopropyl-N-[1-(4-acetamido-phenyl)-4-methylpyrrolidin-3-yl]-1,2-oxazole-3-carboxamide] — higher, > 50 µM
- COc1ccccc1N1C[C@H](C)[C@H](NC(=O)c2cc(C3CC3)on2)C1 (racemic) [compound 279, (±)-cis-5-cyclopropyl-N-[1-(2-methoxyphenyl)-4-methylpyrrolidin-3-yl]-1,2-oxazole-3-carboxamide] — higher, > 50 µM
- COc1cccc(N2C[C@H](C)[C@H](NC(=O)c3cc(C4CC4)on3)C2)c1 (racemic) [compound 280, (±)-cis-5-cyclopropyl-N-[1-(3-methoxyphenyl)-4-methylpyrrolidin-3-yl]-1,2-oxazole-3-carboxamide] — higher, > 50 µM
- CC(C)N1C[C@@H](C)[C@H](NC(=O)c2cc(C(F)F)on2)C1 (racemic) [compound 281, (±)-trans-5-(difluoro-methyl)-N-[4-methyl-1-(propan-2-yl)pyrrolidin-3-yl]-1,2-oxazole-3-carboxamide] — higher, > 50 µM
- C[C@H]1CN(Cc2cc([N+](=O)[O-])ccc2F)C[C@H]1NC(=O)c1cc(C2CC2)on1 (racemic) [compound 282, (±)-cis-5-cyclopropyl-N-{1-[(2-fluoro-5-nitrophenyl)methyl]-4-methylpyrrolidin-3-yl}-1,2-oxazole-3-carboxamide] — 4.4-fold higher, 26.7 µM
- C[C@H]1CN(Cc2ccsc2)C[C@H]1NC(=O)c1cc(C2CC2)on1 (racemic) [compound 283, (±)-cis-5-cyclopropyl-N-[4-methyl-1-(thiophen-3-ylmethyl)pyrrolidin-3-yl]-1,2-oxazole-3-carboxamide] — 3.3-fold lower, 1.85 µM
- COc1ncc(CN2C[C@H](C)[C@H](NC(=O)c3cc(C4CC4)on3)C2)cc1Br (racemic) [compound 284, (±)-cis-N-{1-[(5-bromo-6-methoxypyridin-3-yl)methyl]-4-methyl-pyrrolidin-3-yl}-5-cyclopropyl-1,2-oxazole-3-carboxamide] — 6.7-fold higher, 40.5 µM
- CNC(=O)CN1C[C@@H](C)[C@H](NC(=O)c2cc(C3CC3)on2)C1 (racemic) [compound 286, (±)-trans-5-cyclopropyl-N-{4-methyl-1-[(methyl-carbamoyl)methyl]pyrrolidin-3-yl}-1,2-oxazole-3-carboxamide] — higher, > 50 µM
- CNC(=O)CN1C[C@H](C)[C@H](NC(=O)c2cc(C3CC3)on2)C1 (racemic) [compound 287, (±)-cis-5-cyclopropyl-N-{4-methyl-1-[(methyl-carbamoyl)methyl]pyrrolidin-3-yl}-1,2-oxazole-3-carboxamide] — higher, > 50 µM
- C[C@H]1CN(Cc2c[nH]c(-c3ccccc3)n2)C[C@H]1NC(=O)c1cc(C2CC2)on1 (racemic) [compound 288, (±)-cis-5-cyclopropyl-N-{4-methyl-1-[(2-phenyl-1H-imidazol-4-yl)methyl]pyrrolidin-3-yl}-1,2-oxazole-3-carboxamide] — 3.5-fold higher, 21.1 µM
